In the NIST ThermoML archive (doi:10.1016/j.tca.2018.05.010):
Values joined by “and” are separate entries in the source; they are usually repeats but may differ in a detail not shown here. Equal values may be shown once. Numbers after ± are expanded uncertainties.

Assays:
[1] = Molar enthalpy of transition or fusion; settings: Crystal; DSC
[2] = Crystal; for vapor or sublimation pressure: Transpiration method; for Normal melting temperature: DTA

Structure (SMILES) | Molar enthalpy of transition or fusion [1] | vapor or sublimation pressure ([2]; 352.9 K) | vapor or sublimation pressure ([2]; 358.2 K) | vapor or sublimation pressure ([2]; 362.9 K) | vapor or sublimation pressure ([2]; 367.8 K) | vapor or sublimation pressure ([2]; 373.2 K) | vapor or sublimation pressure ([2]; 378 K) | vapor or sublimation pressure ([2]; 387.9 K) | Normal melting temperature [2] | vapor or sublimation pressure ([2]; 362.7 K) | vapor or sublimation pressure ([2]; 373 K) | vapor or sublimation pressure ([2]; 383 K) | vapor or sublimation pressure ([2]; 388 K) | vapor or sublimation pressure ([2]; 392.7 K)
O=C(O)C(O)c1ccccc1 (stereo not drawn) [mandelic acid] | 6 ± 0.167 kcal/mol | 0.00068 ± 0.0003 kPa | 0.00116 ± 0.00048 kPa | 0.00193 ± 0.00074 kPa | 0.00284 ± 0.0011 kPa | 0.0051 ± 0.0022 kPa | 0.0076 ± 0.003 kPa and 0.00771 ± 0.0031 kPa | 0.0179 ± 0.0067 kPa | 121.2 ± 1.1 °C |  |  |  |  | 
O=C(O)[C@@H](O)c1ccccc1 [(S)-2-hydroxy-2-phenylacetic acid] | 5.93 ± 0.143 kcal/mol |  |  |  | 0.00264 ± 0.001 kPa |  | 0.00647 ± 0.0026 kPa |  | 134.6 ± 1.1 °C | 0.0016 ± 0.00062 kPa | 0.00431 ± 0.0016 kPa | 0.0109 ± 0.0042 kPa and 0.0107 ± 0.0041 kPa | 0.0164 ± 0.0061 kPa | 0.0241 ± 0.0088 kPa
